Experimental data: US20200352912A1, “ANTIMICROBIAL COMPOSITIONS AND METHODS OF USING THE SAME” (The Board Of Supervisors Of Louisiana State University And …, priority 2018, published 2020)
“Also recorded” adds a separate entry of the source.

Legend:
IP = IP (Homo sapiens, UniProt P43119); details: cited from earlier work
S. aureus strain 43300 = assay: staphyloxanthin assay; type: cell-based, Staphylococcus aureus
Experimental: Pigment (staphyloxanthin) levels were measured from cultures grown in Mueller-Hinton broth+/−L-161, 982 at 37° C. for 24 h. A) Macroscopic analysis of S. aureus pigment production. B) Pigment was extracted in methanol and optical density measured at 450 nm. Data shown are representative of two independent experiments. *** p<0.001 control vs. drug-treated.
Strains and growth conditions. The methicillin-resistant S. aureus strain NRS383 was obtained from the Network on Antimicrobial Resistance in S. aureus (NARSA) data bank. As NRS383 has little or no hemolytic activity or pigmentation, S. aureus strain 43300 (ATCC) was used for the hemolysis and staphyloxanthin assays. Frozen stocks were obtained at −80° C. and streaked onto trypticase soy agar (TSA) plates at 37° C. prior to use. A single colony was transferred to 10 ml of trypticase soy broth (TSB) and shaken at 37° C. overnight. On the following day, the overnight culture was diluted 1:100 in fresh growth medium and shaken at 37° C. for 3 h to obtain cells in mid-log growth phase.
Staphyloxanthin Assay. S. aureus was diluted 100-fold in 50 ml of TSB containing 50 or 100 μg/ml of L-161,982 and cultured shaking at 37° C. for 48 h. Control cultures were grown in broth alone. […] Cells from each culture were counted and normalized. […] Optical densities of supernatants were measured at 465 nm using a spectrophotometer.

[1] = system: LPS-activated human macrophages; details: 100 nM; cited from earlier work
EP1 = EP1 (Homo sapiens, UniProt P34995); details: cited from earlier work
[2] = system: C. albicans pre-formed biofilm; assay: pre-formed mature biofilm (XTT, CFU); type: cell-based, Candida albicans; details: all concentrations tested, 24 h treatment
Experimental: The effect of L-161, 982 on pre-formed mature biofilms was tested. Mono- and dual-species C. albicans and/or S. aureus biofilms were grown on 96-well plates for 24 h before being treated with the indicated concentration of L-161, 982 for a further 24 h. After treatment, metabolic activity of biofilms was quantified by the XTT assay (A) and then biofilms were disrupted to determine live colony forming units (CFU) (B). The results are cumulative of three independent experiments with duplicate samples. Statistics were performed using One-way ANOVA with the Tukey post-hoc test for the XTT assay. The Mann-Whitney U test was used to analyze CFU data. Significance is indicated as follows: ns—not significant, *P<0.05; *** P<0.001. Error bars represent standard deviation.
Following growth as described above, microbes were washed in phosphate-buffered saline (PBS) by centrifugation, counted on a hemocytometer, and adjusted to 2×10^7 CFU/ml in RPMI buffered with MOPS (165 mM). […]
The XTT reduction assay was used to determine the metabolic activity of biofilms following treatment with L-161, 982 (17). Briefly, wells were washed once in PBS, and plates incubated at 37° C. for 2 h with 200 μl XTT working reagent (0.5 mg/ml XTT and 1 μM Menadione) and the resulting absorbance measured at 490 nm on a microplate spectrophotometer. […]

S. aureus strain NRS383 = assay: effect of exogenous thymidine on antibacterial activity; type: cell-based, Staphylococcus aureus; details: 50 μg/ml, 200 μg/ml thymidine
Experimental: S. aureus strain NRS383 was grown in cation-adjusted Mueller-Hinton II broth alone (control), with 50 μg/ml of L-161, 982 or with 40 μg/ml of SXT (positive control)±200 μg/ml of thymidine. Cultures were incubated at 37° C. non-shaking and aliquots were removed at various time points and cultured for growth (CFU). Results are expressed as % of control at each time point. Mean values from two independent experiments are shown.
Effect of exogenous thymidine on antibacterial activity of L-161, 982. S. aureus was cultured to mid-log phase in cation-adjusted Mueller-Hinton II broth with shaking at 37° C. Cultures were further diluted to yield a final concentration of 5×10^5 cells/ml. and treated with drugs alone or in combination with 200 μg/ml of thymidine (Sigma). Drugs were L-161, 982 (50 μg/ml) or 40 μg/ml of trimethoprim-sulfamethoxazole (SXT) at a ratio of 1:19 (2 μg/ml of trimethoprim and 38 μg/ml of sulfamethoxazole; Sigma) as a positive control. Cultures were incubated at 37° C. without shaking and aliquots were removed at t(0), 2, 4, 6, and 24 hours. CFUs were enumerated by plating various dilutions on TSA plates and incubating at 37° C. for 24 hours. Results were normalized to negative control cultures containing no drug at each time point.

IP, sequence (P43119 whole entry): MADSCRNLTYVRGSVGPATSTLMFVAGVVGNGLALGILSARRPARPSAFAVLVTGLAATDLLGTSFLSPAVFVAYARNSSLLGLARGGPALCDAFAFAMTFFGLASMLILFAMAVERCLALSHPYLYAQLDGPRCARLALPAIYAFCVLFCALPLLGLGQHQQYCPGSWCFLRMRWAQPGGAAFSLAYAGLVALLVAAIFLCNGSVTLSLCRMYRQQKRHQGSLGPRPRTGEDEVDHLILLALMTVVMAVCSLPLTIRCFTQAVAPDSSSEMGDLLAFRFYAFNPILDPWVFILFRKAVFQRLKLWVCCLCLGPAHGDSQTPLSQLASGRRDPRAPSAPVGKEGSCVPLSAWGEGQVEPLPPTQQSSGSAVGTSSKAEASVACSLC
EP1, sequence (P34995 whole entry): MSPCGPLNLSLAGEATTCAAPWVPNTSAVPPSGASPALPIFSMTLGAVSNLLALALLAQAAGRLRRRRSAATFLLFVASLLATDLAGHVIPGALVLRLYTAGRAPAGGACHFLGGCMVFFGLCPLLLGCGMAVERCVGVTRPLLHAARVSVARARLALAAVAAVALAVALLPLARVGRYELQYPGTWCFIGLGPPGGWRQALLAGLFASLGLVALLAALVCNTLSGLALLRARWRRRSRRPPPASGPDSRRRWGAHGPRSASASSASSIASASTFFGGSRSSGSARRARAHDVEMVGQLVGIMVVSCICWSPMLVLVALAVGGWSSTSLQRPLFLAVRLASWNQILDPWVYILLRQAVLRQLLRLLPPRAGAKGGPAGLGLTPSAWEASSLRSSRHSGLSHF

CCCCc1nn(-c2ccccc2C(F)(F)F)c(=O)n1Cc1ccc(-c2ccccc2S(=O)(=O)NC(=O)c2sccc2C)cc1 [L-161, 982, N-[[4′-[[3-Butyl-1,5-dihydro-5-oxo-1-[2-(trifluoromethyl)phenyl]-4H-1,2,4-triazol-4-yl]methyl][1,1′-biphenyl]-2-yl]sulfonyl]-3-methyl-2-thiophenecarboxamide]
Ki (IP): 6.7 µM | pigmentation (staphyloxanthin) (S. aureus strain 43300): loss of yellow pigmentation | effect on anti-inflammatory action of PGE2 [1]: reverses the anti-inflammatory action of PGE2 | Ki (EP1): 17 µM | metabolic activity of pre-formed biofilm [2]: no significant inhibitory effects | effect of exogenous thymidine on growth inhibition (S. aureus strain NRS383): did not reverse; also recorded: no effect
